Laboratory results: US8802597B2, “Herbicidal pyrimidines” (E I du Pont de Nemours and Company, priority 2003, dated 2014)
Where two headings read alike, the source gives them in different places.

How the values were obtained:
Type in all cases: in vivo
wild oat (Avena fatua) = assay: Test B postemergence; conditions: Avena fatua, post-emergence
Procedure, shortened: (§1)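 Test chemicals in a non-phytotoxic solvent mixture with surfactant were applied preemergence to planted seeds and postemergence to plants 2 to 18 cm tall (1- to 4-leaf stage). After 13 to 15 days in a greenhouse, injury was visually rated against untreated controls on a 0 to 100 scale.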

[1] = test system: blackgrass (Alopecurus myosuroides); assay: Test B postemergence; conditions: Alopecurus myosuroides, post-emergence
Procedure, shortened: as §1

[2] = test system: wheat (Triticum aestivum); assay: Test B pre/postemergence; conditions: Triticum aestivum; for plant injury at 125 g/ha: 125 g ai/ha; for plant injury at 500 g/ha: 500 g ai/ha
Procedure, shortened: as §1

[3] = test system: cocklebur (Xanthium strumarium); assay: Test B pre/postemergence; conditions: Xanthium strumarium; for pest or weed control at 125 g/ha: 125 g ai/ha; for pest or weed control at 500 g/ha: 500 g ai/ha
Procedure, shortened: as §1

[4] = test system: morningglory (Ipomoea coccinea); assay: Test B pre/postemergence; conditions: Ipomoea; for pest or weed control at 125 g/ha: 125 g ai/ha; for pest or weed control at 500 g/ha: 500 g ai/ha
Procedure, shortened: as §1

[5] = test system: Surinam grass (Brachiaria decumbens); assay: Test B pre/postemergence; conditions: Urochloa decumbens; for pest or weed control at 125 g/ha: 125 g ai/ha; for pest or weed control at 500 g/ha: 500 g ai/ha
Procedure, shortened: as §1

corn (Zea mays) = assay: Test B pre/postemergence; conditions: Zea mays
Procedure, shortened: as §1

[6] = test system: crabgrass (Digitaria sanguinalis); assay: Test B pre/postemergence; conditions: Digitaria sanguinalis; for pest or weed control at 125 g/ha: 125 g ai/ha; for pest or weed control at 500 g/ha: 500 g ai/ha
Procedure, shortened: as §1

[7] = test system: barnyardgrass (Echinochloa crus-galli); assay: Test B pre/postemergence; conditions: Echinochloa crus-galli; for pest or weed control at 125 g/ha: 125 g ai/ha; for pest or weed control at 500 g/ha: 500 g ai/ha
Procedure, shortened: as §1

[8] = test system: velvetleaf (Abutilon theophrasti); assay: Test B pre/postemergence; conditions: Abutilon theophrasti; for pest or weed control at 125 g/ha: 125 g ai/ha; for pest or weed control at 500 g/ha: 500 g ai/ha
Procedure, shortened: as §1

[9] = test system: pigweed (Amaranthus retroflexus); assay: Test B pre/postemergence; conditions: Amaranthus retroflexus; for pest or weed control at 125 g/ha: 125 g ai/ha; for pest or weed control at 500 g/ha: 500 g ai/ha
Procedure, shortened: as §1

[10] = test system: giant foxtail (Setaria faberii); assay: Test B pre/postemergence; conditions: Setaria faberi; for pest or weed control at 125 g/ha: 125 g ai/ha; for pest or weed control at 500 g/ha: 500 g ai/ha
Procedure, shortened: as §1

[11] = test system: lambsquarters (Chenopodium album); assay: Test B pre/postemergence; conditions: Chenopodium album; for pest or weed control at 125 g/ha: 125 g ai/ha; for pest or weed control at 500 g/ha: 500 g ai/ha
Procedure, shortened: as §1

rice (Oryza sativa) = assay: Test B flooded paddy test; conditions: Oryza sativa, Flood, 1000 g ai/ha; scale 0 to 100; read-out: Plant response rating, Rice
Procedure, shortened: (§2)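 Plants were grown to the 2-leaf stage before treatment, then kept in a greenhouse for 13 to 15 days. Injury was rated visually against untreated controls on a 0 to 100 scale, where 0 is no effect and 100 is complete control.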

[12] = test system: umbrella sedge (Cyperus difformis); assay: Test B flooded paddy test; conditions: Cyperus difformis, Flood, 1000 g ai/ha; scale 0 to 100; read-out: Plant response rating, Sedge, Umbrella
Procedure, shortened: as §2

[13] = test system: barnyardgrass (Echinochloa crus-galli); assay: Test B flooded paddy test; conditions: Echinochloa crus-galli, Flood, 1000 g ai/ha; scale 0 (no effect) to 100 (complete control); read-out: Plant response rating, Barnyardgrass
Procedure, shortened: as §2

[14] = test system: duck salad (Heteranthera limosa); assay: Test B flooded paddy test; conditions: Heteranthera limosa, Flood, 1000 g ai/ha; scale 0 to 100; read-out: Plant response rating, Ducksalad
Procedure, shortened: as §2

## COC(=O)c1nc(C2CC2)nc(N)c1I [Compound 7]
Wild oat (Avena fatua); 125 g ai/ha, scale 0 to 100 (0 no effect, 100 complete control), read-out: Oat, Wild plant response rating
  pest or weed control at 125 g/ha: 40%
Wild oat (Avena fatua); 500 g ai/ha, scale 0 to 100, read-out: Plant response rating, Oat, Wild
  pest or weed control at 500 g/ha: 70%
[1]; 125 g ai/ha, scale 0 to 100 (0 no effect, 100 complete control), read-out: Blackgrass plant response rating
  pest or weed control at 125 g/ha: 60%
[1]; 500 g ai/ha, scale 0 to 100, read-out: Plant response rating, Blackgrass
  pest or weed control at 500 g/ha: 80%
[2]; post-emergence, Postemergence, scale 0 to 100 (0 no effect, 100 complete control), read-out: Wheat plant response rating
  plant injury at 125 g/ha: 50%
[2]; post-emergence, Postemergence, scale 0 to 100, read-out: Plant response rating, Wheat
  plant injury at 500 g/ha: 80%
[2]; pre-emergence, Preemergence, scale 0 to 100 (0 no effect, 100 complete control), read-out: Plant response rating, Wheat
  plant injury at 125 g/ha: 0%
[2]; pre-emergence, Preemergence, scale 0 to 100 (0 no effect, 100 complete control), read-out: Wheat plant response rating
  plant injury at 500 g/ha: 30%
[3]; post-emergence, Postemergence, scale 0 to 100 (0 no effect, 100 complete control), read-out: Cocklebur plant response rating
  pest or weed control at 125 g/ha: 90%
[3]; post-emergence, Postemergence, scale 0 to 100, read-out: Plant response rating, Cocklebur
  pest or weed control at 500 g/ha: 100%
[3]; pre-emergence, Preemergence, scale 0 to 100 (0 no effect, 100 complete control), read-out: Plant response rating, Cocklebur
  pest or weed control at 125 g/ha: 70%
[3]; pre-emergence, Preemergence, scale 0 to 100 (0 no effect, 100 complete control), read-out: Cocklebur plant response rating
  pest or weed control at 500 g/ha: 80%
[4]; post-emergence, Postemergence, scale 0 to 100 (0 no effect, 100 complete control), read-out: Morningglory plant response rating
  pest or weed control at 125 g/ha: 80%
[4]; post-emergence, Postemergence, scale 0 to 100, read-out: Plant response rating, Morningglory
  pest or weed control at 500 g/ha: 90%
[4]; pre-emergence, Preemergence, scale 0 to 100 (0 no effect, 100 complete control), read-out: Plant response rating, Morningglory
  pest or weed control at 125 g/ha: 70%
[4]; pre-emergence, Preemergence, scale 0 to 100 (0 no effect, 100 complete control), read-out: Morningglory plant response rating
  pest or weed control at 500 g/ha: 80%
[5]; post-emergence, Postemergence, scale 0 to 100 (0 no effect, 100 complete control), read-out: Surinam Grass plant response rating
  pest or weed control at 125 g/ha: 0%
[5]; post-emergence, Postemergence, scale 0 to 100, read-out: Plant response rating, Surinam Grass
  pest or weed control at 500 g/ha: 20%
[5]; pre-emergence, Preemergence, scale 0 to 100 (0 no effect, 100 complete control), read-out: Plant response rating, Surinam Grass
  pest or weed control at 125 g/ha: 0%
[5]; pre-emergence, Preemergence, scale 0 to 100 (0 no effect, 100 complete control), read-out: Surinam Grass plant response rating
  pest or weed control at 500 g/ha: 0%
Corn (Zea mays); post-emergence, Postemergence, 125 g ai/ha, scale 0 to 100 (0 no effect, 100 complete control), read-out: Corn plant response rating
  plant injury at 125 g/ha: 0%
Corn (Zea mays); post-emergence, Postemergence, 500 g ai/ha, scale 0 to 100
  Corn plant response rating (crop injury, 0 = no effect, 100 = complete kill) at 500 g/ha: 30%
Corn (Zea mays); pre-emergence, Preemergence, 125 g ai/ha, scale 0 to 100 (0 no effect, 100 complete control)
  Corn plant response rating (crop injury, 0 = no effect, 100 = complete kill) at 125 g/ha: 0%
Corn (Zea mays); pre-emergence, Preemergence, 500 g ai/ha, scale 0 to 100 (0 no effect, 100 complete control), read-out: Corn plant response rating
  plant injury at 500 g/ha: 0%
[6]; post-emergence, Postemergence, scale 0 to 100 (0 no effect, 100 complete control), read-out: Crabgrass plant response rating
  pest or weed control at 125 g/ha: 10%
[6]; post-emergence, Postemergence, scale 0 to 100, read-out: Plant response rating, Crabgrass
  pest or weed control at 500 g/ha: 30%
[6]; pre-emergence, Preemergence, scale 0 to 100 (0 no effect, 100 complete control), read-out: Plant response rating, Crabgrass
  pest or weed control at 125 g/ha: 0%
[6]; pre-emergence, Preemergence, scale 0 to 100 (0 no effect, 100 complete control), read-out: Crabgrass plant response rating
  pest or weed control at 500 g/ha: 30%
[7]; post-emergence, Postemergence, scale 0 to 100 (0 no effect, 100 complete control), read-out: Barnyardgrass plant response rating
  pest or weed control at 125 g/ha: 0%
[7]; post-emergence, Postemergence, scale 0 to 100, read-out: Plant response rating, Barnyardgrass
  pest or weed control at 500 g/ha: 30%
[7]; pre-emergence, Preemergence, scale 0 to 100 (0 no effect, 100 complete control), read-out: Plant response rating, Barnyardgrass
  pest or weed control at 125 g/ha: 0%
[7]; pre-emergence, Preemergence, scale 0 to 100 (0 no effect, 100 complete control), read-out: Barnyardgrass plant response rating
  pest or weed control at 500 g/ha: 30%
[8]; post-emergence, Postemergence, scale 0 to 100 (0 no effect, 100 complete control), read-out: Velvetleaf plant response rating
  pest or weed control at 125 g/ha: 50%
[8]; post-emergence, Postemergence, scale 0 to 100, read-out: Plant response rating, Velvetleaf
  pest or weed control at 500 g/ha: 90%
[8]; pre-emergence, Preemergence, scale 0 to 100 (0 no effect, 100 complete control), read-out: Plant response rating, Velvetleaf
  pest or weed control at 125 g/ha: 50%
[8]; pre-emergence, Preemergence, scale 0 to 100 (0 no effect, 100 complete control), read-out: Velvetleaf plant response rating
  pest or weed control at 500 g/ha: 80%
[9]; post-emergence, Postemergence, scale 0 to 100 (0 no effect, 100 complete control), read-out: Pigweed plant response rating
  pest or weed control at 125 g/ha: 0%
[9]; post-emergence, Postemergence, scale 0 to 100, read-out: Plant response rating, Pigweed
  pest or weed control at 500 g/ha: 90%
[9]; pre-emergence, Preemergence, scale 0 to 100 (0 no effect, 100 complete control), read-out: Plant response rating, Pigweed
  pest or weed control at 125 g/ha: 90%
[9]; pre-emergence, Preemergence, scale 0 to 100 (0 no effect, 100 complete control), read-out: Pigweed plant response rating
  pest or weed control at 500 g/ha: 90%
[10]; post-emergence, Postemergence, scale 0 to 100 (0 no effect, 100 complete control), read-out: Foxtail, Giant plant response rating
  pest or weed control at 125 g/ha: 20%
[10]; post-emergence, Postemergence, scale 0 to 100, read-out: Plant response rating, Foxtail, Giant
  pest or weed control at 500 g/ha: 40%
[10]; pre-emergence, Preemergence, scale 0 to 100 (0 no effect, 100 complete control), read-out: Plant response rating, Foxtail, Giant
  pest or weed control at 125 g/ha: 0%
[10]; pre-emergence, Preemergence, scale 0 to 100 (0 no effect, 100 complete control), read-out: Foxtail, Giant plant response rating
  pest or weed control at 500 g/ha: 0%
[11]; post-emergence, Postemergence, scale 0 to 100 (0 no effect, 100 complete control), read-out: Lambsquarters plant response rating
  pest or weed control at 125 g/ha: 80%
[11]; post-emergence, Postemergence, scale 0 to 100, read-out: Plant response rating, Lambsquarters
  pest or weed control at 500 g/ha: 100%
[11]; pre-emergence, Preemergence, scale 0 to 100 (0 no effect, 100 complete control), read-out: Plant response rating, Lambsquarters
  pest or weed control at 125 g/ha: 80%
[11]; pre-emergence, Preemergence, scale 0 to 100 (0 no effect, 100 complete control), read-out: Lambsquarters plant response rating
  pest or weed control at 500 g/ha: 90%
Rice (Oryza sativa)
  plant injury at 1000 g/ha: 0%
[12]
  pest or weed control at 1000 g/ha: 0%
[13]
  pest or weed control at 1000 g/ha: 20%
[14]
  pest or weed control at 1000 g/ha: 0%
